Broadly, the pIC50 is −log10 of the IC50, conventionally taken in molar units.

pIC50: −log10 of the molar value.

The results in this text go back to patent US8883841B2, “Oncogenic ras-specific cytotoxic compound and methods of use thereof” (The Board of Regents of the University of Texas System, priority 2005, dated 2014).

Assay [1] concerns H460 cells. Description: PKCiota siRNA knockdown, apoptosis by FACS in H460 cells. Format: cell-based, human. Conditions: 1 μM, 12 h. The procedure:
(§1) Knockdown of PKCiota suppressed Oncrasin-mediated apoptosis and cytotoxicity. To investigate possible role of PCKiota in Oncrasin-1 mediated cytotoxicity, PKCiota was knocked down in H460 cells by using oligo ribonucleotides. H460 cells were treated with 200 pM PKCiota siRNA for 24 h, and then with DMSO or 1 μM Oncrasin for another 12 h. After that, cells harvested for analysis of apoptosis by fluorescence-activated cell sorting (FACS) and for expression of PKCiota by Western blot analysis. […] To further study the effect of atypical PKC in Oncrasin-induced cytotoxicity, the inventors obtained plasmids encoding PKCiota and PKCzeta siRNA from Origene Corporation and made stable PKCiota and PKCzeta knockdown T29Kt1 cells. […] The IC50 in PKCiota knockdown T29Kt1 cells were 100 fold higher than parental T29K cells. […] Thus, compounds with synthetic lethality for PKCiota might be useful for treatment of those cancers.
(Flow cytometry measures light scatter and fluorescence of single cells or particles in a stream.)

In assay [2] the test system is SC35. The assay is described as follows: Antibody staining, subcellular localization of SC35 (spliceosome). The assay is classed as cell-based, human. An excerpt: (§2) Effects on RNA spliceosome. To investigate the nature of this PKCiota aggregates in the nucleus, the effect of Oncrasin-1 on SC35, a protein required for RNA splicing and assembly of spliceosome (Fu et al., 1992; Vellard et al., 1992), and on Rad51, a homologous DNA recombinase that involves in DNA repair (Benson et al., 1994; Baumann et al., 1996) were studied. […] and DNA repairing are the two important functions executed in the nucleus. In untreated or DMSO-treated cells, SC35 was localized in nucleus as speckles, either diffusely distributed or concentrated as granule clusters (Mistele et al., 1997), whereas Rad51 was more uniformly distributed inside the nucleus. […] This aggregation of SC35 was not observed in Oncrasin resistant T29 cells upon the treatment with Oncrasin-1. […] The effects of Oncrasin on another spliceosome protein, alternative splicing factor/splicing factor 2 (ASF/SF2), was studied (Krainer et al., 1991). […] In the resistant T29 cells, however, such an aggregation is not observed (FIG. 8C).

In assay [3] the test system is Raf-1, Akt, PKCzeta, PKCdelta, and p53. Description: Immunohistochemical staining, subcellular localization of Raf-1, Akt, PKCzeta, PKCdelta, p53. Format: cell-based, human. Conditions: T29Kt1 or H460 cells, 12 h. As for the experimental part: Effects on subcellular localization of PKCiota. […] To further investigate molecular mechanisms of Oncrasin action the inventors studied the subcellular localization of several molecules involved in Ras-signaling pathway because the functions of Ras and other proteins are directly related to their subcellular localizations. For this purpose, T29Kt1 or H460 cells were seeded on cover glass slides and treated with DMSO or Oncrasin-1 for 12 h. Cells were then fixed with paraformaldehyde, permeabilized with Triton X-100 and stained with various antibodies for immunohistochemical examination. […] Nevertheless, substantial subcellular localization change was detected for PKCiota after Oncrasin-1 treatment (FIG. 6). In both H460 and T29Kt1 cells, both PKCiota and PKCzeta were diffusely distributed in cells with high concentration on cell membrane in nucleus, consisting with previous reports that aPKC contains both nuclear localization signal (NLS) and nuclear export signal (NES), and can shuttle between cytoplasm and nucleus, which was regulated by intramolecular conformational changes, phosphorylation or by treatment with growth factors (Perander et al., 2001; White et al., 2002; Neri et al., 1999). […] Such aggregation of PKCiota was not observed in Oncrasin-resistant T29 and H1299 cells. […]

The subject of assay [4] is phosphorylated PKCiota. The assay is described as follows: Western blot analysis of phosphorylated PKCiota. The note with it: 12 h. Format: cell-based, human. The procedure: Ras Signaling Pathway and Molecular Mechanisms of Oncrasin-induced apoptosis. To investigate molecular mechanisms of apoptosis induction by Oncrasin compounds, levels several proteins that are involved in apoptosis and/or involved in Ras signaling pathways were determined, including Bax, Bik, Bc12, Bcl-XL, Raf-1, B-Raf, Akt, Mst1 and atypical protein kinase C (aPKC) zeta and PKCiota. To study which molecules are affected by Oncrasin treatment, T29, T29Kt1 and H460 cells were treated with Oncrasin-1 at an optimal concentration, around IC60 to IC80 for T29Kt1 and H460 cells. Cell lysates were collected 12 h after the treatment and subjected to Western blot analysis.
(A western blot detects proteins with antibodies after separation by electrophoresis.)

Assay [5] concerns Icmt−/− MEF. Description: Icmt-dependent growth inhibition, Icmt−/− MEF. The assay is classed as cell-based, mouse. The note with it: up to 100 μM. An excerpt:
Oncrasin and Oncrasin Analogs. Chemically, Oncrasin-1 has the same core structure as indole-3-carbinol, a naturally occurring constituent of many plant foods that has been tested for the prevention and treatment of cancer (Brignall, 2001; Kelloff et al., 1996; Chinni et al., 2001). Oncrasin-1 also has structural similarity to sulindac (Taylor et al., 2000; Sun et al., 2002) and lonidamine (Ravagnan et al., 1999; Papaldo et al., 2003), both of which have been evaluated preclinically and clinically for treatment of cancers. […] Oncrasin compounds also bear a indole core structure as the small-molecule inhibitor of isoprenylcysteine carboxylmethyltransferase (Icmt), 2-[5-(3-methylphenyl)-1-octyl-1H-indol-3-yl]acetamide (cysmethynil), which also induces antitumor activity in Ras gene mutant cancer cells (Winter-Vann et al., 2005). […] Both wild-type MEF and Icmt−/− MEF (Bergo et al., 2004) (kindly provided by Dr. S G Young at the University of California, San Francisco) were resistant to Oncrasin-1.

Assay [6] concerns H460 cells. The assay is described as follows: K-Ras siRNA knockdown, Oncrasin-induced apoptosis by FACS in H460 cells. Format: cell-based, human. The note with it: 1 μM, 12 h, compared with DMSO. The procedure: K-Ras knockdown inhibited Oncrasin-induced apoptosis. To further study the role of K-Ras gene in Oncrasin-induced cell death, H460 cells were treated with […] of K-Ras specific siRNA or a control siRNA for 24 h. The cells were then treated with DMSO or 1 μM Oncrasin-1. After another 12 h, the cells were harvested for apoptosis detection by fluorescence-activated cytometric assay. The cell lysate was also used to detect K-Ras gene expression.

Assay [7] concerns PKCiota knockdown T29Kt1 cells. The assay is described as follows: Cell viability in stable PKCiota knockdown T29Kt1 cells. Format: cell-based, human. The procedure: as §1
Assay [8] relates to ASF/SF2. The assay is described as follows: Antibody staining, subcellular localization of ASF/SF2. The assay is classed as cell-based, human.
Source text: as §2

Assay [9] concerns T29Kt1 cells. The assay is described as follows: cells. The note with it: Homo sapiens, T29Kt1, read-out: IC50 in T29k cells, Table 1.

With `O=Cc1cn(Cc2ccc(Cl)cc2)c2ccccc12` [Oncrasin K001, 1H-Indole-3-carboxaldehyde, 1-[(4-chlorophenyl)methyl]-(9CI)], in assay [1], the “apoptosis in H460 cells after knockdown of PKCiota by siRNA” value is “dramatically suppressed Oncrasin-induced apoptosis”. The “SC35 localization, T29Kt1 cells” value in assay [2] is reported as “aggregation of SC35 into several large foci”. The “SC35 aggregation, T29 cells” value in assay [2] (Oncrasin resistant cells) is “not observed”. For the same compound, in [3], the “subcellular localization of Raf-1, Akt, PKCzeta, PKCdelta, and p53” value is “did not induce obvious changes”. Also, in assay [4], the “phosphorylated PKCiota in H460 and T29K cells” value is “increase in phosphorylated PKCiota”; the “phosphorylated PKCiota in T29 cells” value was “but not in Oncrasin-1 resistant T29 cells”. Moreover, the “growth inhibition, Icmt−/− MEF” value in assay [5] is “resistant”. Besides, the “apoptotic cells, control siRNA treated H460” value in assay [6] is listed as “dramatic increase of apoptotic cells”. In [7] (cell viability analysis), the “susceptibility of stable PKCiota knockdown T29Kt1 cells” value is reported as “almost complete resistance”. The “IC50 in PKCiota knockdown T29Kt1 cells relative to parental T29K cells” value in [7] (stable knockdown) is 100 fold. In addition, the “ASF/SF2 localization, T29Kt1 cells” value in assay [8] is “induced ASF/SF2 aggregation inside nucleus”. In [8] (resistant cells), the “ASF/SF2 aggregation, T29 cells” value was “not observed”.
For `OCc1cn(Cc2ccc(Cl)cc2)c2ccccc12` [Oncrasin K060, 1H-Indole-3-methanol, 1-[(4-chlorophenyl)methyl]-], the negative-log IC50 (pIC50) in assay [9] is 7.10.
